Measurements taken from patent publication US20110269811A1, “INHIBITORS OF SEMICARBAZIDE-SENSITIVE AMINE OXIDASE (SSAO) AND VAP-1 MEDIATED ADHESION USEFUL FOR TREATMENT AND PREVENTION OF DISEASES” (priority 2006, published 2011).
Where a name gives a salt, the structure may show the parent alone.

molecular target: T1, Human SSAO (Homo sapiens, UniProt Q16853); experiment: In vitro inhibition of SSAO activity, human umbilical cord homogenate, 14C-benzylamine; type: biochemical; conditions: human umbilical cord homogenate; read-out: Human SSAO IC50
T1 construct: rat lung or human umbilical cord homogenates were prepared by chopping the freshly removed tissue; from tissue; host or cells: human umbilical cord homogenate (25,000 g supernatant)
T1 sequence (Q16853 1-763): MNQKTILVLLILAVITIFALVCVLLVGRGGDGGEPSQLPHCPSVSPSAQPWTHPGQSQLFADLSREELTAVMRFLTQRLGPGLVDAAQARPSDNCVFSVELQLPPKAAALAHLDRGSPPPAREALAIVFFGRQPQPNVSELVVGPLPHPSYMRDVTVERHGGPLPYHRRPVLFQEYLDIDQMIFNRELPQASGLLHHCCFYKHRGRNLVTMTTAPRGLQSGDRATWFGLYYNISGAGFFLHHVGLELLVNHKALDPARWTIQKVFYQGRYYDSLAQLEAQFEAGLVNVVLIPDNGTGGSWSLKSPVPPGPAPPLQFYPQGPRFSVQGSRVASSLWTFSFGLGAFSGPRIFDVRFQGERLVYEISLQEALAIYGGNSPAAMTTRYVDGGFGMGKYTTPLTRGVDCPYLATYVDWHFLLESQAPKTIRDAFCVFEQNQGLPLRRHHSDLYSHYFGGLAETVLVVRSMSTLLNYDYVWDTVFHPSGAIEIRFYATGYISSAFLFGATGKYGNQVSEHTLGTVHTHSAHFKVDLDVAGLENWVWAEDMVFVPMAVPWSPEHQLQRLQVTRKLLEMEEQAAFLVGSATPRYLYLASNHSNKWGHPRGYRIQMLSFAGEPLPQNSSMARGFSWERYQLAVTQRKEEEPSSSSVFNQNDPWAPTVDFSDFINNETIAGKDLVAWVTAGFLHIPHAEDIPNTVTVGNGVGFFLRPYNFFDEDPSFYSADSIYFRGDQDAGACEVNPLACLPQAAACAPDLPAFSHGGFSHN
Procedure: SSAO activity was measured as described (Lizcano J M. Et al. (1998) Biochem J. 331:69). Briefly, rat lung or human umbilical cord homogenates were prepared by chopping the freshly removed tissue into small pieces and washing them thoroughly in PBS. The tissue was then homogenized 1:10 (w/v) for lung or 1:5 (w/v) for umbilical cord, in 10 mM potassium phosphate buffer (pH 7.8). Homogenates were then centrifuged at 1000 g at 4° C. for 10 min (lung) or 25,000 g for 30 min (umbilical cord); the supernatants were kept frozen until ready to use. Lung or umbilical cord homogenate was preincubated with clorgyline and pargyline at 1 μM to inhibit MAO-A and -B activity, respectively, and SSAO inhibitors were generally present at 1 nM-10 μM. The reaction was initiated by addition of 20 μM ^14C— benzylamine as substrate. The reaction was carried out at 37° C. in a final volume of 400 μL of 100 mM potassium phosphate buffer (pH 7.2) and stopped with 100 μl of 2M citric acid. Radioactively labeled products were extracted into toluene/ethyl acetate (1:1, v/v) containing 0.6% (w/v) 2,5-diphenyloxazole (PPO) before liquid scintillation counting.

Row | IC50 | Structure (SMILES)
1 | 28 nM | Cl.NC/C(=C\F)Cc1ccc(Cl)cc1 [Compound I-3-Z, (Z)-2-(4-Chlorobenzyl)-3-fluoro-allylamine hydrochloride]
2 | 30 nM | COc1ccc(CC/C(=C/F)CN)cc1.Cl [Compound I-102-Z, (Z)-3-Fluoro-2-[2-(4-methoxyphenyl)-ethyl]-allylamine hydrochloride]
3 | 300 nM | Cl.NC/C(F)=C\Cc1ccc(F)cc1 [II-5-E, (E)-2-Fluoro-4-(4-fluorophenyl)-2-butenylamine hydrochloride]
4 | 10 nM | CCOc1ccc(C/C(=C/F)CN)cc1.Cl [Compound I-2-Z, (Z)-3-Fluoro-2-(4-ethoxybenzyl)-allylamine hydrochloride]
5 | 12 nM | CSc1ccc(C/C(=C/F)CN)cc1.Cl [Compound I-9-Z, (Z)-3-Fluoro-2-(4-methylthiobenzyl)allylamine hydrochloride]
6 | 130 nM | NC/C(=C\F)CCc1ccc(F)cc1 [Compound I-99-Z, (Z)-2-(fluoromethylene)-4-(4-fluorophenyl)butan-1-amine]
7 | 9 nM | CCOc1ccc(C/C(=C\F)CN)cc1.Cl [Compound I-2-E, (E)-3-Fluoro-2-(4-ethoxybenzyl)-allylamine hydrochloride]
8 | 140 nM | CCOc1ccc(CC/C(=C\Cl)CN)cc1.Cl [Compound I-45-Z, (E)-3-Chloro-2-(4-ethoxyphenylethyl)allylamine hydrochloride]
9 | 720 nM | COc1ccc(CC/C(=C\Cl)CN)cc1.Cl [Compound I-44-Z, (E)-3-Chloro-2-(4-methoxyphenylethyl)allylamine hydrochloride]

The next lines start with the compound.

Row | Structure (SMILES) | IC50
10 | CC(C)c1ccc(C/C(=C/F)CN)cc1.Cl [Compound I-14-Z, (Z)-3-Fluoro-2-(4-isopropylbenzyl)allylamine hydrochloride] | 8 nM
11 | COc1cccc(C/C(=C/F)CN)c1.Cl [Compound I-5-Z, (Z)-3-Fluoro-2-(3-methoxybenzyl)allylamine hydrochloride] | 28 nM
12 | Cl.NC/C(=C\F)Cc1cccc(F)c1 [Compound I-19-Z, (Z)-3-Fluoro-2-(3-fluorobenzyl)allylamine hydrochloride] | 25 nM
13 | CC(C)Oc1ccc(C/C(=C\F)CN)cc1 [Compound I-8-E, (E)-3-Fluoro-2-(4-isopropoxybenzyl)allylamine hydrochloride] | 11.4 nM
14 | COc1cccc(C/C(C)=C(/F)CN)c1 [II-18-E, hydrochloride] | 290 nM
15 | Cl.NC/C(F)=C\Cc1ccccc1 [II-9-E, (E)-2-Fluoro-4-phenyl-2-butenylamine hydrochloride] | 99 nM
16 | Cl.NC/C(F)=C\Cc1cccc(F)c1 [II-7-E, (E)-2-Fluoro-4-(3-fluorophenyl)-2-butenylamine hydrochloride] | 220 nM
17 | CC(C)Oc1ccc(C/C(=C/F)CN)cc1.Cl [Compound I-8-Z, (Z)-3-Fluoro-2-(4-isopropoxybenzyl)allylamine hydrochloride] | 5 nM
18 | Cl.NC/C(F)=C\Cc1cccc(SC(F)(F)F)c1 [II-15-E, (E)-2-Fluoro-4-(3-trifluoromethylthiophenyl)-2-butenylamine hydrochloride] | 23 nM
19 | Cl.NC/C(F)=C\Cc1cccc(OC(F)(F)F)c1 [II-10-E, (E)-2-Fluoro-4-(3-trifluoromethoxyphenyl)-2-butenylamine hydrochloride] | 18 nM
20 | CN(C)c1cccc(C/C=C(/F)CN)c1.Cl [II-11-E, (E)-2-Fluoro-4-(3-dimethylaminophenyl)-2-butenylamine hydrochloride] | 110 nM
21 | NC/C(=C\F)CCc1cc(F)cc(C(F)(F)F)c1.O=C(O)C(F)(F)F [Compound I-109-Z, (Z)-3-Fluoro-2-(3-fluoro-5-trifluoromethylphenylethyl)allylamine trifluoroacetate] | 270 nM
22 | CSc1cccc(C/C=C(/F)CN)c1.Cl [II-13-E, (E)-2-Fluoro-4-(3-methylthiophenyl)-2-butenylamine hydrochloride] | 10 nM
23 | CC(C)c1ccc(C/C(=C\F)CN)cc1.Cl [Compound I-14-E, (E)-3-Fluoro-2-(4-isopropylbenzyl)allylamine hydrochloride] | 13 nM
24 | COc1cccc(C/C=C(/F)CN)c1.Cl [II-8-E, (E)-2-Fluoro-4-(3-methoxyphenyl)-2-butenylamine hydrochloride] | 22 nM
25 | Cc1cccc(C/C=C(/F)CN)c1.Cl [II-6-E, (E)-2-Fluoro-4-(3-methylphenyl)-2-butenylamine hydrochloride] | 130 nM
26 | CCCCOc1ccc(CC/C(=C\Cl)CN)cc1.Cl [Compound I-47-E, (E)-3-Chloro-2-(4-n-butoxyphenylethyl)allylamine hydrochloride] | 170 nM
27 | CC(C)(C)c1ccc(C/C(=C/F)CN)cc1.Cl [Compound I-15-Z, (Z)-3-Fluoro-2-(4-tert-butylbenzyl)allylamine hydrochloride] | 7 nM
28 | NC/C(=C\Cl)CCc1cc(F)cc(C(F)(F)F)c1.O=C(O)C(F)(F)F [Compound I-40-Z, (Z)-3-Chloro-2-(3-fluoro-5-trifluoromethylphenylethyl)allylamine trifluoroacetate] | 920 nM
29 | CS(=O)(=O)c1cccc(C/C=C(/F)CN)c1.Cl [II-14-E, (E)-2-Fluoro-4-(3-methanesulfonylphenyl)-2-butenylamine hydrochloride] | 70 nM
30 | COc1cccc(OC/C=C(/F)CN)c1 [II-19-E, (E)-2-fluoro-4-(3-methoxyphenoxy)but-2-en-1-amine] | 160 nM

test system: carrageenan-induced paw edema; experiment: Carrageenan-induced rat paw edema; type: in vivo, Sprague Dawley rats; conditions: 50 mg/kg orally 60 min prior to carrageenan; between 3-6 h
From the text: Carrageenan-induced paw edema has been extensively used in the evaluation of anti-inflammatory effects of various therapeutic agents and is a useful experimental system for assessing the efficacy of compounds to alleviate acute inflammation (Whiteley P E and Dalrymple S A, 1998. Models of inflammation: carrageenan-induced paw edema in the rat, in Current Protocols in Pharmacology. Enna S J, Williams M, Ferkany J W, Kenaki T, Porsolt R E and Sullivan J P, eds., pp 5.4.1-5.4.3, John Wiley & Sons, New York). The full development of the edema is neutrophil-dependent (Salvemini D. et al. (1996) Br. J. Pharmacol. 118: 829).
Female Sprague Dawley rats were used in groups of 8-12 and compounds of the invention were administered orally at up to 50 mg/kg 60 min prior to carrageenan exposure. The control group was administered orally an equal volume of vehicle (PBS). Edema in the paws was induced as previously described by injecting 50 μL of a 0.5% solution of carrageenan (Type IV Lambda, Sigma) in saline with a 27-G needle s.c. in the right foot pad. (See Whiteley P. E. and Dalrymple S. A. (1998), Models of inflammation: carrageenan-induced paw edema in the rat, in Current Protocols in Pharmacology, Enna S J, Williams M, Ferkany J W, Kenaki T, Porsolt R E and Sullivan J P, eds., pp 5.4.1-5.4.3, John Wiley & Sons, New York) The size of the tested foot of each animal was measured volumetrically with a plethysmometer immediately after injection of carrageenan solution and at various times up to 360 min after carrageenan induction.
Results of experiments with the compounds II-1-E, I-1-Z, and I-2-Z are shown in FIG. 1, FIG. 5, and FIG. 6, respectively.
Using the same procedure discussed above, the size of the foot of each animal was measured volumetrically before induction of edema, and at 1.5, 3, 4.5 and 6 h after the carrageenan injection. The absolute decreases in paw swelling at 6 h with 1, 10 and 50 mg/kg were 5±11%, 20±9% and 32±6% respectively. Statistical analyses were performed with repeated measures ANOVA followed by Dunnett's test for multiple comparisons.
Paw edema was induced in groups of eight Sprague Dawley rats by injecting 50 μL of a 0.375% solution of carrageenan X in saline, subcutaneously in the foot. After one hour animals were orally dosed once with PBS, compound I-1-Z at 50 mg/kg or with indomethacin at 3 mg/kg. The size of the paws were measured before induction of edema (baseline), and at 1.5, 3, 4.5 and 6 h after carrageenan injection. […] Statistical analyses were performed with repeated measures ANOVA followed by Dunnett's test for multiple comparisons.
Groups of eight Sprague Dawley rats were orally administered PBS, or 0.01, 0.1 or 1 mg/kg of compound I-1-Z. One hour later paw edema was induced in all animals by injecting 50 μL of a 0.5% solution of carrageenan X in saline, subcutaneously into the footpad. The size of the foot of each animal was measured volumetrically before induction of edema, and at 1.5, 3, 4.5 and 6 h after the carrageenan injection. The absolute decreases in paw swelling at 6 h with 0.1 and 1 mg/kg were 34±8 and 29±8% respectively. Statistical analyses were performed with repeated measures ANOVA followed by Dunnett's test for multiple comparisons.

Row | Structure (SMILES) | paw swelling
31 | CCOc1ccc(C/C(=C/F)CN)cc1.Cl [Compound I-2-Z, (Z)-3-Fluoro-2-(4-ethoxybenzyl)-allylamine hydrochloride] | clearly reduced the paw swelling
